Test results taken from ChEMBL document CHEMBL4411306, “High-throughput screening of novel pyruvate dehydrogenase kinases inhibitors and biological evaluation of their in vitro and in vivo antiproliferative activity” (Eur J Med Chem, 2019).
Calls of active or inactive are those of the source. No cut-off for these calls is given here.

Experiments:
NCI-H1975 [1] = assay: Inhibition of PDK in human NCI-H1975 cells assessed as reduction in PDH phosphorylation at 10 uM after 12 hrs by Western blot analysis; assay type: cell-based
[2] = target: T1, [Pyruvate dehydrogenase (acetyl-transferring)] kinase isozyme 2, mitochondrial (Homo sapiens, UniProt Q15119); assay: Inhibition of recombinant human His-tagged PDK2 expressed in Escherichia coli using PDH E1 as substrate measured after 30 mins by Kinase-Glo luminescence assay
[3] = target: [Pyruvate dehydrogenase (acetyl-transferring)] kinase isozyme 3, mitochondrial (Homo sapiens, UniProt Q15120); assay: Inhibition of recombinant human His-tagged PDK3 expressed in Escherichia coli using PDH E1 as substrate measured after 30 mins by Kinase-Glo luminescence assay
[Pyruvate dehydrogenase (acetyl-transferring)] kinase isozyme 3, mitochondrial, sequence (Q15120 whole entry): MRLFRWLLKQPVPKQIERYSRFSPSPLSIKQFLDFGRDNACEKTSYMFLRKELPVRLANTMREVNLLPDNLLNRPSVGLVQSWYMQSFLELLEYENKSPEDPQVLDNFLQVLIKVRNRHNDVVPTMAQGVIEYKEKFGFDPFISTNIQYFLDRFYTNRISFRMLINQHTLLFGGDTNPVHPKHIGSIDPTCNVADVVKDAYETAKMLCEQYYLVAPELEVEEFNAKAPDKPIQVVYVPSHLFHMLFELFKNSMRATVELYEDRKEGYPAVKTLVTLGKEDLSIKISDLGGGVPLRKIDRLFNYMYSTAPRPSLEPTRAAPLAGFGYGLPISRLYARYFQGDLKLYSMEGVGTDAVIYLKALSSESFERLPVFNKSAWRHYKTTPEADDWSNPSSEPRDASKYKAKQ

A-375 = assay: Antiproliferative activity against human A375 cells assessed as reduction in cell viability after 72 hrs by MTT assay; assay type: functional
HCT-116 = assay: Antiproliferative activity against human HCT116 cells assessed as reduction in cell viability after 72 hrs by MTT assay; assay type: functional
[4] = Antiproliferative activity against human BEAS2B cells assessed as reduction in cell viability after 72 hrs by MTT assay; assay type: cell-based; details: BEAS-2B cells, read-out: GC50
A549 = assay: Antiproliferative activity against human A549 cells assessed as reduction in cell viability after 72 hrs by MTT assay; assay type: functional
NCI-H1650 = assay: Antiproliferative activity against human NCI-H1650 cells assessed as reduction in cell viability after 72 hrs by MTT assay; assay type: functional
[5] = Permeability across human Caco2 cells by liquid scintillation counting method; assay type: ADME, cell-based; details: caco-2
[6] = Inhibition of porcine PDK assessed as activation of pyruvate dehydrogenase complex measured after 3 mins; parameters: species or system Sus scrofa
[7] = target: T2, [Pyruvate dehydrogenase (acetyl-transferring)] kinase isozyme 1, mitochondrial (Homo sapiens, UniProt Q15118); assay: Inhibition of recombinant human His-tagged PDK1 expressed in Escherichia coli using PDH E1 as substrate measured after 30 mins by Kinase-Glo luminescence assay
T2 sequence (Q15118 whole entry): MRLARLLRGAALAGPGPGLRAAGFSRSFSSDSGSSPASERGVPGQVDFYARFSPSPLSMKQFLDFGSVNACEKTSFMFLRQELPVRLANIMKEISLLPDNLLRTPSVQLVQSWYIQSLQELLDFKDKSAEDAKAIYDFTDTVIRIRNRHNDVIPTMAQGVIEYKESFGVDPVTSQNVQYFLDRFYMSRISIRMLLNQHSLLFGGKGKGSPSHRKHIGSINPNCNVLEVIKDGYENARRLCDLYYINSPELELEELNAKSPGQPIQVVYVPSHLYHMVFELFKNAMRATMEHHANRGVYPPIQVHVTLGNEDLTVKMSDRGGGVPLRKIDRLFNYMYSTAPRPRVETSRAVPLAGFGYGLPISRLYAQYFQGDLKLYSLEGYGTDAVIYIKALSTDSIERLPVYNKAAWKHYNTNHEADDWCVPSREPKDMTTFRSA

[8] = target: T2, [Pyruvate dehydrogenase (acetyl-transferring)] kinase isozyme 1, mitochondrial; assay: Binding affinity to recombinant human His-tagged PDK1 expressed in Escherichia coli by isothermal calorimetry
MCF7 = assay: Antiproliferative activity against human MCF7 cells assessed as reduction in cell viability after 72 hrs by MTT assay; assay type: functional
NCI-H1975 [9] = assay: Antiproliferative activity against human NCI-H1975 cells assessed as reduction in cell viability after 72 hrs by MTT assay; assay type: functional
Heat shock protein HSP90 = Heat shock protein HSP90 (Homo sapiens, UniProt P07900+P08238); assay: Inhibition of human HSP90 measured after 30 mins by fluorescence polarization assay; assay type: protein assay
[10] = target: [Pyruvate dehydrogenase (acetyl-transferring)] kinase isozyme 4, mitochondrial (Homo sapiens, UniProt Q16654); assay: Inhibition of recombinant human His-tagged PDK4 expressed in Escherichia coli using PDH E1 as substrate measured after 30 mins by Kinase-Glo luminescence assay
[Pyruvate dehydrogenase (acetyl-transferring)] kinase isozyme 4, mitochondrial, sequence (Q16654 whole entry): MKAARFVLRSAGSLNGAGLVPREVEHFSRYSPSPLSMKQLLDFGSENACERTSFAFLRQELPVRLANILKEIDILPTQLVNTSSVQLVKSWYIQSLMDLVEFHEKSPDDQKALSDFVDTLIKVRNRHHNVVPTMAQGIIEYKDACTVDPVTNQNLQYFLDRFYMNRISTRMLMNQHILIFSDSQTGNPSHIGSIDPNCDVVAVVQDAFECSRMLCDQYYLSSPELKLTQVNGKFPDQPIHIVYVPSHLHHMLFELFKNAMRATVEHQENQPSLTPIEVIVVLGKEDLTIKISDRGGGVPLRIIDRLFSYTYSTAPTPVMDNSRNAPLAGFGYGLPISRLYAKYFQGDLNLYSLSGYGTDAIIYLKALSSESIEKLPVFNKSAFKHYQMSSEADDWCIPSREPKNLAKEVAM

HepG2 = assay: Antiproliferative activity against human HepG2 cells assessed as reduction in cell viability after 72 hrs by MTT assay; assay type: functional
Sus scrofa = organism: Sus scrofa; assay: Inhibition of porcine PDK assessed as activation of pyruvate dehydrogenase complex at 10 mM measured after 3 mins relative to control
NCI-H1975 [11] = assay: Inhibition of PDK in human NCI-H1975 cells assessed as reduction in PDH phosphorylation at Ser293 residue at 10 mM by ELISA; assay type: cell-based
[12] = target: T2, [Pyruvate dehydrogenase (acetyl-transferring)] kinase isozyme 1, mitochondrial; details: NCI-H1975, 10 mM
Description: Inhibition of PDK1 in human NCI-H1975 cells assessed as switch of pyruvate metabolism from lactate production to oxidative phosphorylation by measuring by measuring reduction in lactate formation at 10 mM measured after 4 hrs

[13] = target: T2, [Pyruvate dehydrogenase (acetyl-transferring)] kinase isozyme 1, mitochondrial; details: NCI-H1975, 10 mM; remark: listed apart in the source
Description: Inhibition of PDK1 in human NCI-H1975 cells assessed as switch of pyruvate metabolism from lactate production to oxidative phosphorylation by measuring decrease in extracellular acidification rate at 10 mM measured after 4 hrs by XFe24 extracellular flux analyzer based assay

NCI-H1975 [14] = assay: Inhibition of PDK in human NCI-H1975 cells assessed as reduction in PDH phosphorylation at 10 mM after 12 hrs by Western blot analysis; assay type: cell-based
[15] = target: T2, [Pyruvate dehydrogenase (acetyl-transferring)] kinase isozyme 1, mitochondrial; details: NCI-H1975, 10 mM; remark: listed apart in the source
Description: Inhibition of PDK1 in human NCI-H1975 cells assessed as switch of pyruvate metabolism from lactate production to oxidative phosphorylation by measuring increase in oxygen consumption rates at 10 mM measured after 4 hrs by XFe24 extracellular flux analyzer based assay

[16] = target: T1, [Pyruvate dehydrogenase (acetyl-transferring)] kinase isozyme 2, mitochondrial; assay: Inhibition of E2-activated human PDHK2

C[C@H]1CCc2c(sc3nc(SCCN4CCCC4)n(N)c(=O)c23)C1
reduction in PDH phosphorylation (qualitative) (NCI-H1975 [1]): Active | IC50 [2]: 10.5 µM | IC50 [3]: 8.3 µM | Activity (A-375): Dose-dependent effect | GC50 (A-375): >20 µM | Activity (HCT-116): Dose-dependent effect | GC50 (HCT-116): >20 µM | GI50 at 72 h [4]: > 20 µM | Activity (A549): Dose-dependent effect | GC50 (A549): >20 µM | Activity (NCI-H1650): Dose-dependent effect | GC50 (NCI-H1650): 16.3 µM | Papp [5]: 0.96 ×10⁻⁶ cm/s | EC50 [6]: 1.6 µM | IC50 [7]: 5.9 µM | Kd [8]: 3.5 µM | Activity (MCF7): Dose-dependent effect | GC50 (MCF7): >20 µM | Activity (NCI-H1975 [9]): Dose-dependent effect | GC50 (NCI-H1975 [9]): 15.6 µM | IC50 (Heat shock protein HSP90): 2.7 µM | IC50 [10]: 14.7 µM | Activity (HepG2): Dose-dependent effect | GC50 (HepG2): >20 µM

COc1cccc2c1C(=O)c1c(O)c3c(c(O)c1C2=O)C[C@@](O)(C(=O)CO)C[C@@H]3O[C@H]1C[C@H](N)[C@H](O)[C@H](C)O1 [DOXORUBICIN]
Papp [5]: 0.21 ×10⁻⁶ cm/s

O=C(c1ccccc1)C(Cl)Cl
reduction in PDH phosphorylation (qualitative) (NCI-H1975 [1]): Active | EC50 [6]: > 1000 µM

CC(=O)N[C@@H](Cc1c[nH]c2ccccc12)C(=O)NCCOc1ccc(C2CCCCC2)cc1
reduction in PDH phosphorylation (qualitative) (NCI-H1975 [1]): Active | EC50 [6]: 3.5 µM

CC(C)CNS(=O)(=O)c1ccc(OCC(=O)N(Cc2ccccc2)Cc2ccccc2)cc1
reduction in PDH phosphorylation (qualitative) (NCI-H1975 [1]): Active | IC50 [2]: 5.9 µM | IC50 [3]: 4.9 µM | Activity (A-375): Dose-dependent effect | GC50 (A-375): 12.3 µM | Activity (HCT-116): Dose-dependent effect | GC50 (HCT-116): >20 µM | GI50 at 72 h [4]: > 20 µM | Activity (A549): Dose-dependent effect | GC50 (A549): 17.5 µM | Activity (NCI-H1650): Dose-dependent effect | GC50 (NCI-H1650): >20 µM | Papp [5]: 1.14 ×10⁻⁶ cm/s | EC50 [6]: 1.4 µM | IC50 [7]: 0.89 µM | Kd [8]: 1.49 µM | Activity (MCF7): Dose-dependent effect | GC50 (MCF7): >20 µM | Activity (NCI-H1975 [9]): Dose-dependent effect | GC50 (NCI-H1975 [9]): >20 µM | IC50 (Heat shock protein HSP90): 3.58 µM | IC50 [10]: 6.9 µM | Activity (HepG2): Dose-dependent effect | GC50 (HepG2): 18.2 µM

Cc1ccc(NC(=O)CSc2c[nH]c(-c3ccccc3O)n2)cc1
reduction in PDH phosphorylation (qualitative) (NCI-H1975 [1]): Active | EC50 [6]: 4.6 µM

Cc1cnc(Cl)nc1-c1ccc(N(Cc2ccc(CNC(=O)C(F)F)cc2)C(=O)c2ccc(O)cc2O)cc1
EC50 [6]: 0.12 µM

O=C(Nc1ccc(Cl)cc1C(=O)N1CCCC[C@@H]1CCO)c1ccc(Cl)cc1Cl
reduction in PDH phosphorylation (qualitative) (NCI-H1975 [1]): Active | EC50 [6]: 8.4 µM

COc1ccc(C(=O)CSc2nnc(CNc3ccccc3OC)n2-c2ccccc2)cc1
reduction in PDH phosphorylation (qualitative) (NCI-H1975 [1]): Active | EC50 [6]: 5.2 µM

O=C(O)C(Cl)Cl [DICHLOROACETIC ACID]
inhibition (Sus scrofa): 54.8% | EC50 [6]: > 100 µM | inhibition (NCI-H1975 [11]): Active | inhibition [12]: Active | inhibition [13]: Active | inhibition (NCI-H1975 [14]): Active | inhibition [15]: Active

C[C@@H]1CN(C(=O)[C@](C)(O)C(F)(F)F)[C@@H](C)CN1C(=O)c1ccc(C#N)cc1
IC50 [16]: 0.0078 µM

CN(C)C(=O)c1ccc(S(=O)(=O)c2ccc(NC(=O)[C@@](C)(O)C(F)(F)F)c(Cl)c2)cc1
IC50 [16]: 0.08 µM

COc1ccc(-c2nnn(CC(=O)Nc3cccc(F)c3)n2)cc1
reduction in PDH phosphorylation (qualitative) (NCI-H1975 [1]): Active | EC50 [6]: 6.9 µM

CCOc1ccc([C@@H]2C(C(=O)Nc3cccnc3)=C(C)Nc3nc(CCCO)nn32)cc1
reduction in PDH phosphorylation (qualitative) (NCI-H1975 [1]): Active | EC50 [6]: 5.9 µM

CC(C)Cc1ccc(C(C)C(=O)O)cc1 (centres undefined) [IBUPROFEN]
Papp [5]: 47.2 ×10⁻⁶ cm/s
